Experimental data as given in patent US20260306476A1, “ANTIBACTERIAL COMPOUND PBT2” (priority 2022, published 2026).
Where two headings read alike, the source gives them in different places.

Columns and labels:
[1] = system: methicillin-resistant Staphylococcus aureus (MRSA); conditions: in the absence of an antibiotic; cited from earlier work
[2] = system: vancomycin-resistant Enterococcus (VRE); conditions: in the absence of an antibiotic; cited from earlier work
[3] = system: MDR Neisseria gonorrhoeae; assay: RNA-seq expression profile analysis after PBT2 treatment; type: cell-based; conditions: for fold change in gene expression (up- or down-regulated) at 0.156 µg/mL / fold induction at 0.156 µg/mL: Neisseria gonorrhoeae
Protocol: Expression profile analysis using RNA-seq was performed to investigate the mode of action of PBT2 in killing Neisseria gonorrhoeae.

**Q.** With `CN(C)Cc1ccc2c(Cl)cc(Cl)c(O)c2n1` [PBT2, 5,7-dichloro-2-[(dimethylamino)methyl]quinolin-8-ol] as the compound, how does the antibacterial activity [1] read?
**A.** neither PBT2 nor zinc alone displayed antibacterial activity which would be suitable to treat an infection

**Q.** What about the antibacterial activity [2] of the same compound?
**A.** neither PBT2 nor zinc alone displayed antibacterial activity which would be suitable to treat an infection

**Q.** And the fold change in gene expression (up- or down-regulated) at 0.156 µg/mL ([3]; read-out: Fold Change, down-regulated gene WHOZ_00293 (Periplasmic protein))?
**A.** 3.56

**Q.** And the fold change in gene expression (up- or down-regulated) at 0.156 µg/mL ([3]; read-out: Fold Change, down-regulated gene WHOZ_00873 (outer membrane protein))?
**A.** 3.36

**Q.** What about the fold change in gene expression (up- or down-regulated) at 0.156 µg/mL ([3]; read-out: Fold Change, down-regulated gene WHOZ_00996 (Na(+)-translocating NADH-quinone reductase subunit D)) of the same compound?
**A.** 3.25

**Q.** What about the fold change in gene expression (up- or down-regulated) at 0.156 µg/mL ([3]; read-out: Fold Change, down-regulated gene WHOZ_00998 (Na(+)-translocating NADH-quinone reductase subunit B)) of the same compound?
**A.** 3.3

**Q.** What about the fold change in gene expression (up- or down-regulated) at 0.156 µg/mL ([3]; read-out: Fold Change, down-regulated gene WHOZ_01539 (NADH dehydrogenase subunit C)) of the same compound?
**A.** 3.32

**Q.** And the fold change in gene expression (up- or down-regulated) at 0.156 µg/mL ([3]; read-out: Fold Change, down-regulated gene WHOZ_01541 (NADH dehydrogenase subunit E))?
**A.** 3.77

**Q.** And the fold change in gene expression (up- or down-regulated) at 0.156 µg/mL ([3]; read-out: Fold Change, down-regulated gene WHOZ_01542 (NADH-quinone oxidoreductase, F subunit))?
**A.** 3.57

**Q.** And the fold change in gene expression (up- or down-regulated) at 0.156 µg/mL ([3]; read-out: Fold Change, down-regulated gene WHOZ_01545 (NADH-quinone oxidoreductase subunit H))?
**A.** 3.58

**Q.** What about the fold change in gene expression (up- or down-regulated) at 0.156 µg/mL ([3]; read-out: Fold Change, down-regulated gene WHOZ_01546 (NADH dehydrogenase subunit I)) of the same compound?
**A.** 4.11

**Q.** What about the fold change in gene expression (up- or down-regulated) at 0.156 µg/mL ([3]; read-out: Fold Change, down-regulated gene WHOZ_01547 (NADH dehydrogenase subunit J)) of the same compound?
**A.** 3.8

**Q.** What about the fold change in gene expression (up- or down-regulated) at 0.156 µg/mL ([3]; read-out: Fold Change, down-regulated gene WHOZ_01548 (NADH dehydrogenase subunit K)) of the same compound?
**A.** 4

**Q.** And the fold change in gene expression (up- or down-regulated) at 0.156 µg/mL ([3]; read-out: Fold Change, down-regulated gene WHOZ_01549 (NADH:ubiquinone dehydrogenase, L subunit))?
**A.** 3.95

**Q.** What about the fold change in gene expression (up- or down-regulated) at 0.156 µg/mL ([3]; read-out: Fold Change, down-regulated gene WHOZ_01550 (Predicted HKD family nuclease)) of the same compound?
**A.** 3.73

**Q.** And the fold change in gene expression (up- or down-regulated) at 0.156 µg/mL ([3]; read-out: Fold Change, down-regulated gene WHOZ_01551 (NADH dehydrogenase subunit M))?
**A.** 3.68

**Q.** And the fold change in gene expression (up- or down-regulated) at 0.156 µg/mL ([3]; read-out: Fold Change, down-regulated gene WHOZ_01552 (NADH dehydrogenase subunit N))?
**A.** 3.41

**Q.** And the fold change in gene expression (up- or down-regulated) at 0.156 µg/mL ([3]; read-out: Fold Change, down-regulated gene bfr (bacterioferritin), first entry)?
**A.** 8.2

**Q.** What about the fold change in gene expression (up- or down-regulated) at 0.156 µg/mL ([3]; read-out: Fold Change, down-regulated gene bfr (bacterioferritin), second entry) of the same compound?
**A.** 7.73

**Q.** And the fold change in gene expression (up- or down-regulated) at 0.156 µg/mL ([3]; read-out: Fold Change, down-regulated gene cysK (Cysteine synthetase))?
**A.** 3.38

**Q.** What about the fold change in gene expression (up- or down-regulated) at 0.156 µg/mL ([3]; read-out: Fold Change, down-regulated gene nqrE) of the same compound?
**A.** 3.48

**Q.** What about the fold change in gene expression (up- or down-regulated) at 0.156 µg/mL ([3]; read-out: Fold Change, down-regulated gene nqrF) of the same compound?
**A.** 3.47

**Q.** And the fold induction at 0.156 µg/mL ([3]; read-out: Fold Change, up-regulated gene WHOZ_00302 (MpeR))?
**A.** 20.2

**Q.** And the fold induction at 0.156 µg/mL ([3]; read-out: Fold Change, up-regulated gene WHOZ_00403 (putative lipoprotein))?
**A.** 19.1

**Q.** And the fold induction at 0.156 µg/mL ([3]; read-out: Fold Change, up-regulated gene WHOZ_00412 (putative ferredoxin))?
**A.** 4.43

**Q.** And the fold induction at 0.156 µg/mL ([3]; read-out: Fold Change, up-regulated gene WHOZ_00413 (Thioredoxin))?
**A.** 7.01

**Q.** And the fold induction at 0.156 µg/mL ([3]; read-out: Fold Change, up-regulated gene WHOZ_00880 (integral membrane protein))?
**A.** 3.91

**Q.** And the fold induction at 0.156 µg/mL ([3]; read-out: Fold Change, up-regulated gene WHOZ_01151 (TonB-dependent receptor plug domain-containing protein))?
**A.** 4.75

**Q.** And the fold induction at 0.156 µg/mL ([3]; read-out: Fold Change, up-regulated gene WHOZ_01152 (hemoglobin receptor))?
**A.** 5.13

**Q.** What about the fold induction at 0.156 µg/mL ([3]; read-out: Fold Change, up-regulated gene WHOZ_01153 (hemoglobin receptor)) of the same compound?
**A.** 3.89

**Q.** And the fold induction at 0.156 µg/mL ([3]; read-out: Fold Change, up-regulated gene WHOZ_01683 (fetA))?
**A.** 4.53

**Q.** And the fold induction at 0.156 µg/mL ([3]; read-out: Fold Change, up-regulated gene WHOZ_01837 (outer membrane protein))?
**A.** 3.91

**Q.** What about the fold induction at 0.156 µg/mL ([3]; read-out: Fold Change, up-regulated gene WHOZ_01985 (hypothetical periplasmic protein)) of the same compound?
**A.** 5.49

**Q.** What about the fold induction at 0.156 µg/mL ([3]; read-out: Fold Change, up-regulated gene WHOZ_02005 (transferrin-binding protein-like)) of the same compound?
**A.** 10.1

**Q.** What about the fold induction at 0.156 µg/mL ([3]; read-out: Fold Change, up-regulated gene WHOZ_02042 (TonB)) of the same compound?
**A.** 11.9

**Q.** And the fold induction at 0.156 µg/mL ([3]; read-out: Fold Change, up-regulated gene WHOZ_02043 (ExbB))?
**A.** 10.5

**Q.** What about the fold induction at 0.156 µg/mL ([3]; read-out: Fold Change, up-regulated gene WHOZ_02044 (ExbD protein)) of the same compound?
**A.** 12.5

**Q.** What about the fold induction at 0.156 µg/mL ([3]; read-out: Fold Change, up-regulated gene WP_003690577.1 (hypothetical protein)) of the same compound?
**A.** 4.61

**Q.** And the fold induction at 0.156 µg/mL ([3]; read-out: Fold Change, up-regulated gene WP_003690710.1 (hypothetical protein))?
**A.** 8.64

**Q.** And the fold induction at 0.156 µg/mL ([3]; read-out: Fold Change, up-regulated gene fumC (Fumarase C))?
**A.** 12.2

**Q.** What about the fold induction at 0.156 µg/mL ([3]; sub-MIC PBT2 0.156 mg/L, read-out: up-regulation of mpeR) of the same compound?
**A.** 20

**Q.** What about the fold induction at 0.156 µg/mL ([3]; sub-MIC PBT2 0.156 mg/L, read-out: up-regulation of seven genes) of the same compound?
**A.** > 10

**Q.** And the LogFC ([3]; down-regulated gene WHOZ_00293 (Periplasmic protein))?
**A.** 1.83

**Q.** What about the LogFC ([3]; down-regulated gene WHOZ_00873 (outer membrane protein)) of the same compound?
**A.** 1.75

**Q.** What about the LogFC ([3]; down-regulated gene WHOZ_00996 (Na(+)-translocating NADH-quinone reductase subunit D)) of the same compound?
**A.** 1.70

**Q.** And the LogFC ([3]; down-regulated gene WHOZ_00998 (Na(+)-translocating NADH-quinone reductase subunit B))?
**A.** 1.72

**Q.** And the LogFC ([3]; down-regulated gene WHOZ_01539 (NADH dehydrogenase subunit C))?
**A.** 1.73

**Q.** And the LogFC ([3]; down-regulated gene WHOZ_01541 (NADH dehydrogenase subunit E))?
**A.** 1.92

**Q.** What about the LogFC ([3]; down-regulated gene WHOZ_01542 (NADH-quinone oxidoreductase, F subunit)) of the same compound?
**A.** 1.83

**Q.** What about the LogFC ([3]; down-regulated gene WHOZ_01545 (NADH-quinone oxidoreductase subunit H)) of the same compound?
**A.** 1.84

**Q.** And the LogFC ([3]; down-regulated gene WHOZ_01546 (NADH dehydrogenase subunit I))?
**A.** 2.04
